Laboratory results published in patent US20250122225A1, “MASP-2 INHIBITORS AND METHODS OF USE” (Omeros Corporation, priority 2023, published 2025).
Where a name gives a salt, the structure may show the parent alone.

Experiments:
[1] = biological target: T1, MASP-2 (CCP1-CCP2-SP) (Homo sapiens, UniProt O00187); test: Enzymatic assay for MASP-2 inhibitory activity (fluorogenic substrate); format: biochemical
T1 construct: 15 μL of Enzyme MASP-2 (CCP1-CCP2-SP) in Assay Buffer
Summary of the method: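 MASP-2 (CCP1-CCP2-SP) cleaved a fluorogenic substrate based on the C2 cleavage site in 20 mM HEPES pH 7.4, 140 mM NaCl, 0.1% Tween 20 at room temperature. After 20 min the reaction was stopped with 0.1 M acetic acid and fluorescence read. % activity was normalized to DMSO-only and no-enzyme controls; IC50 taken as Ki.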

[2] = biological target: T2, human α-thrombin (Homo sapiens, UniProt P00734); test: Enzymatic assay for thrombin (fluorogenic peptide substrate Boc-VPR-AMC); format: biochemical
T2 construct: enzyme (human α-thrombin (BioPharm® Lab.)) in assay buffer; purchased BioPharm® Lab
Summary of the method: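 Human α-thrombin was run with the fluorogenic substrate Boc-VPR-AMC in 20 mM Hepes pH 7.4, 140 mM NaCl, 0.1% Tween 20 at room temperature for 20 min, then stopped with 0.1 M acetic acid. % activity was normalized to DMSO and no-enzyme controls. Under linear conditions IC50 equalled Ki, except for tight-binding inhibitors.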

T1 sequence (O00187 445-686 limits assumed): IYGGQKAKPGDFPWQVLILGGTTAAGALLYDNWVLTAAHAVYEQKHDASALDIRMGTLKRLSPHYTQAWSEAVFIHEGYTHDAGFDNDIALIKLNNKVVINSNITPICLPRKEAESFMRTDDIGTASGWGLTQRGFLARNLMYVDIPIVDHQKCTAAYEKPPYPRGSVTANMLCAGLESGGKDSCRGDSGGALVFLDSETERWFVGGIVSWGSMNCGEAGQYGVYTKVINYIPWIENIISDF
T1 sequence (O00187 287-444 partner limits assumed): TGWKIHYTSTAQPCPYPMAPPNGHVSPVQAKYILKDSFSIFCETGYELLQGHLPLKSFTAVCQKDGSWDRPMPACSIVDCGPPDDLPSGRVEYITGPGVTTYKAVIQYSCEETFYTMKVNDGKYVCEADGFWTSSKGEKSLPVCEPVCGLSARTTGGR

Ki [1] [µM] | Ki [2] [µM] | Compound
< 0.5 | 10 to 25 | Cc1ccc(C)c(CNc2ncc3n(c2=O)[C@H](C(=O)NCc2cc4cnc(C)cc4[nH]2)CC3)c1 [Compound 57, (S)-3-((2,5-dimethylbenzyl)amino)-N-((6-methyl-1H-pyrrolo[3,2-c]pyridin-2-yl)methyl)-4-oxo-4,6,7,8-tetrahydropyrrolo[1,2-a]pyrazine-6-carboxamide]
< 0.5 | 2.5 to 10 | Cc1cc(C)cc(CNc2nc(Cl)c3n(c2=O)[C@H](C(=O)NCc2cc4c(s2)CNC4)CC3)c1 [Compound 31, (S)-1-chloro-N-((5,6-dihydro-4H-thieno[2,3-c]pyrrol-2-yl)methyl)-3-((3,5-dimethylbenzyl)amino)-4-oxo-4,6,7,8-tetrahydropyrrolo[1,2-a]pyrazine-6-carboxamide]
< 0.5 | 2.5 to 10 | Cc1cc(C)cc(CNc2ncc3n(c2=O)[C@H](C(=O)NCc2cc4cnccc4[nH]2)C[C@@H]3C)c1 [Compound 153, (6S,8S)-N-((1H-pyrrolo[3,2-c]pyridin-2-yl)methyl)-3-((3,5-dimethylbenzyl)amino)-8-methyl-4-oxo-4,6,7,8-tetrahydropyrrolo[1,2-a]pyrazine-6-carboxamide]
< 0.5 | 2.5 to 10 | Cc1cc(F)cc(CNc2nc(Cl)c3n(c2=O)[C@H](C(=O)NCc2ccc(N)nc2C)CC3)c1 [Compound 212, (S)—N-((6-amino-2-methylpyridin-3-yl)methyl)-1-chloro-3-((3-fluoro-5-methylbenzyl)amino)-4-oxo-4,6,7,8-tetrahydropyrrolo[1,2-a]pyrazine-6-carboxamide trifluoroacetate]
< 0.5 | 2.5 to 10 | Cc1cc2[nH]c(CNC(=O)[C@@H]3CCc4cnc(NCc5cccc(C)c5F)c(=O)n43)cc2cn1 [Compound 61, (S)-3-((2-fluoro-3-methylbenzyl)amino)-N-((6-methyl-1H-pyrrolo[3,2-c]pyridin-2-yl)methyl)-4-oxo-4,6,7,8-tetrahydropyrrolo[1,2-a]pyrazine-6-carboxamide]
< 0.5 | < 0.5 | Cc1cc(C)cc(CNc2ncc3n(c2=O)[C@H](C(=O)NCc2ccc(N)nc2C)CC32CC2)c1 [Compound 122, (S)—N-((6-amino-2-methylpyridin-3-yl)methyl)-3′-((3,5-dimethylbenzyl)amino)-4′-oxo-6′,7′-dihydro-4′H-spiro[cyclopropane-1,8′-pyrrolo[1,2-a]pyrazine]-6′-carboxamide trifluoroacetate]
< 0.5 | 10 to 25 | Cc1ccc(F)cc1CNc1ncc2n(c1=O)[C@H](C(=O)N[C@H](C)c1ccc(N)nc1)CC2 [Compound 196, (S)-N-((R)-1-(6-aminopyridin-3-yl)ethyl)-3-((5-fluoro-2-methylbenzyl)amino)-4-oxo-4,6,7,8-tetrahydropyrrolo[1,2-a]pyrazine-6-carboxamide trifluoroacetate]
< 0.5 | 2.5 to 10 | Cc1cc(C)cc(CNc2ncc3n(c2=O)[C@H](C(=O)NCc2ccc(CN)nc2)CC3)c1 [Compound 109, (S)-N-((6-(aminomethyl)pyridin-3-yl)methyl)-3-((3,5-dimethylbenzyl)amino)-4-oxo-4,6,7,8-tetrahydropyrrolo[1,2-a]pyrazine-6-carboxamide trifluoroacetate]
< 0.5 | > 25 | Cc1cc(F)cc(CNc2nc(-c3cnn(C(F)F)c3)c3n(c2=O)[C@H](C(=O)NCc2cc4c(s2)CNC4)CC3)c1 [Compound 219, (S)-1-(1-(difluoromethyl)-1H-pyrazol-4-yl)-N-((5,6-dihydro-4H-thieno[2,3-c]pyrrol-2-yl)methyl)-3-((3-fluoro-5-methylbenzyl)amino)-4-oxo-4,6,7,8-tetrahydropyrrolo[1,2-a]pyrazine-6-carboxamide trifluoroacetate]
< 0.5 | 0.5 to 2.5 | Cc1cc(F)cc(CNc2nc(-c3ccnn3C)c3n(c2=O)[C@H](C(=O)NCc2ccc(N)nc2C)CC3)c1 [Compound 175, (S)-N-((6-amino-2-methylpyridin-3-yl)methyl)-3-((3-fluoro-5-methylbenzyl)amino)-1-(1-methyl-1H-pyrazol-5-yl)-4-oxo-4,6,7,8-tetrahydropyrrolo[1,2-a]pyrazine-6-carboxamide trifluoroacetate]
0.5 to 2.5 | 10 to 25 | Cc1cc(F)cc(CNc2ncc3n(c2=O)[C@H](C(=O)NCc2c(C)cc(CN)cc2C)CC3)c1 [Compound 206, trifluoroacetate]
2.5 to 10 | > 25 | Cc1cc(F)cc(CNc2ncc3n(c2=O)[C@H](C(=O)NCc2cnc4ccccn24)CC3)c1 [Compound 204, trifluoroacetate]
< 0.5 | 2.5 to 10 | COc1cc(F)cc(CNc2ncc3n(c2=O)[C@H](C(=O)N[C@H](C)c2ccc(N)nc2)CC3)c1 [Compound 200, (S)-N-((R)-1-(6-aminopyridin-3-yl)ethyl)-3-((3-fluoro-5-methoxybenzyl)amino)-4-oxo-4,6,7,8-tetrahydropyrrolo[1,2-a]pyrazine-6-carboxamide trifluoroacetate]

Further lines, the compound ahead of its results:

Compound | Ki [1] [µM] | Ki [2] [µM]
O=C(NCc1cc2c(s1)CNC2)[C@@H]1CCc2cnc(NC3(c4ccccc4)CCC3)c(=O)n21 [Compound 261, (S)-N-((5,6-dihydro-4H-thieno[2,3-c]pyrrol-2-yl)methyl)-4-oxo-3-((1-phenylcyclobutyl)amino)-4,6,7,8-tetrahydropyrrolo[1,2-a]pyrazine-6-carboxamide trifluoroacetate] | < 0.5 | < 0.5
Cc1cccc([C@@H](C)Nc2ncc3n(c2=O)[C@H](C(=O)NCc2cc4cnccc4[nH]2)CC3)c1 [Compound 73, (S)-N-((1H-pyrrolo[3,2-c]pyridin-2-yl)methyl)-4-oxo-3-(((R)-1-(m-tolyl)ethyl)amino)-4,6,7,8-tetrahydropyrrolo[1,2-a]pyrazine-6-carboxamide] | < 0.5 | 10 to 25
Cc1cccc(CNc2nc(Cl)c3n(c2=O)[C@H](C(=O)NCc2cc4c(s2)CNC4)CC3)c1F [Compound 32, (S)-1-chloro-N-((5,6-dihydro-4H-thieno[2,3-c]pyrrol-2-yl)methyl)-3-((2-fluoro-3-methylbenzyl)amino)-4-oxo-4,6,7,8-tetrahydropyrrolo[1,2-a]pyrazine-6-carboxamide] | < 0.5 | 2.5 to 10
COC(CNc1nc(Cl)c2n(c1=O)[C@H](C(=O)NCc1cc3cnccc3[nH]1)CC2)c1ccccc1 (stereo partly shown) [Compound 244] | < 0.5 | 0.5 to 2.5
N#Cc1nc(NCc2ccccc2)c(=O)n2c1CC[C@H]2C(=O)NCc1cc2cnccc2[nH]1 [Compound 121, (S)—N-((1H-pyrrolo[3,2-c]pyridin-2-yl)methyl)-3-(benzylamino)-1-cyano-4-oxo-4,6,7,8-tetrahydropyrrolo[1,2-a]pyrazine-6-carboxamide trifluoroacetate] | < 0.5 | 10 to 25
C[C@@H](NC(=O)[C@@H]1CCc2cnc(NCc3cccc(-c4ccccc4)c3)c(=O)n21)c1ccc(N)nc1 [Compound 201, (S)-3-(([1,1′-biphenyl]-3-ylmethyl)amino)-N-((R)-1-(6-aminopyridin-3-yl)ethyl)-4-oxo-4,6,7,8-tetrahydropyrrolo[1,2-a]pyrazine-6-carboxamide] | < 0.5 | > 25
CC[C@@H](Nc1ncc2n(c1=O)[C@H](C(=O)N[C@@H](C)c1cc3c(s1)CNC3)CC2)c1ccccc1 [Compound 278] | < 0.5 | 10 to 25
C[C@H]1C[C@@H](C(=O)NCc2cc3cnccc3[nH]2)n2c1c(Cl)nc(NCc1ccccc1)c2=O [Compound 130, (6S,8S)—N-((1H-pyrrolo[3,2-c]pyridin-2-yl)methyl)-3-(benzylamino)-1-chloro-8-methyl-4-oxo-4,6,7,8-tetrahydropyrrolo[1,2-a]pyrazine-6-carboxamide] | < 0.5 | > 25
CC1(C)C[C@@H](C(=O)NCc2cc3cnccc3[nH]2)n2c1c(Cl)nc(NCc1ccccc1)c2=O [Compound 229, (S)-N-((1H-pyrrolo[3,2-c]pyridin-2-yl)methyl)-3-(benzylamino)-1-chloro-8,8-dimethyl-4-oxo-4,6,7,8-tetrahydropyrrolo[1,2-a]pyrazine-6-carboxamide trifluoroacetate] | < 0.5 | 2.5 to 10
Cc1ccc(F)c(CNc2nc(C#N)c3n(c2=O)[C@H](C(=O)NCc2ccc(N)nc2C)CC3)c1 [Compound 223, trifluoroacetate] | < 0.5 | 2.5 to 10
O=C(NCc1cc2c(s1)CNC2)[C@@H]1CCc2cnc(NCC3(c4ccccc4)CCC3)c(=O)n21 [Compound 271, (S)-N-((5,6-dihydro-4H-thieno[2,3-c]pyrrol-2-yl)methyl)-4-oxo-3-(((1-phenylcyclobutyl)methyl)amino)-4,6,7,8-tetrahydropyrrolo[1,2-a]pyrazine-6-carboxamide trifluoroacetate] | < 0.5 | < 0.5
O=C(NCc1cc2cnccc2[nH]1)[C@@H]1CCc2c(Cl)nc(NCC3(c4ccccc4)CC3)c(=O)n21 [Compound 245] | < 0.5 | 0.5 to 2.5
O=C(NCc1cc2cnccc2[nH]1)[C@@H]1CC2(CC2)c2cnc(NCc3ccccc3)c(=O)n21 [Compound 125, (S)-N-((1H-pyrrolo[3,2-c]pyridin-2-yl)methyl)-3′-(benzylamino)-4′-oxo-6′,7′-dihydro-4′H-spiro[cyclopropane-1,8′-pyrrolo[1,2-a]pyrazine]-6′-carboxamide] | < 0.5 | 2.5 to 10
